Measurements published in patent US20140323478A1, “SERINE/THREONINE KINASE INHIBITORS” (Afraxis Holdings, Inc., priority 2013, published 2014).

Biological target: T1, human recombinant PAK1-KD protein (Homo sapiens, UniProt Q13153)
T1 construct: made in house; host or cells: Tini [sic] cells infected with recombinant baculovirus
Assay: PAK1-KD (kinase domain) IC50 Zlyte assay
Type: biochemical
Conditions: Z'-LYTE FRET peptide substrate (Ser/Thr19), 60-minute incubation at 22° C.
From the text: Determination of the activity of PAK activity of a compound of formula I was accomplished using the PAK1 inhibition assay in Biological Example 1.
PAK1-KD (Kinase Domain) IC50 Zlyte Assay Protocol
Activity of human recombinant PAK1-KD protein may be assessed in vitro by assay of the phosphorylation of a FRET peptide substrate. Catalytically active human recombinant PAK1-KD protein is obtained by purification from Tini cells infected with a human PAK1-KD recombinant baculovirus expression vector.
The activity/inhibition of PAK1-KD was estimated by measuring the phosphorylation of a FRET peptide substrate (Ser/Thr19) labeled with Coumarin and Fluorescein using Z′-LYTE™ assay (Invitrogen). The peptide substrate is a consensus sequence (KKRNRRLSVA) based on various PAK substrates reported in the scientific literature. The 10 μL assay mixtures contained 50 mM HEPES (pH 7.5), 0.01% Brij-35, 10 mM MgCl2, 1 mM EGTA, 2 μM FRET peptide substrate, and 20 pM PAK1-KD. Incubations were carried out at 22° C. in black polypropylene 384-well plates (Corning Costar). […] Following the 60-minute incubation, the assay mixtures were quenched by the addition of 5 μL of Z′-LYTE™ development reagent, and 1 hour later the emissions of coumarin (445 nm) and fluorescein (520 nm) were determined after excitation at 400 nm using an Envision plate reader (Perkin Elmer). An emission ratio (445 nm/520 nm) was determined to quantify the degree of substrate phosphorylation.

T1 sequence (Q13153 270-521 limits assumed): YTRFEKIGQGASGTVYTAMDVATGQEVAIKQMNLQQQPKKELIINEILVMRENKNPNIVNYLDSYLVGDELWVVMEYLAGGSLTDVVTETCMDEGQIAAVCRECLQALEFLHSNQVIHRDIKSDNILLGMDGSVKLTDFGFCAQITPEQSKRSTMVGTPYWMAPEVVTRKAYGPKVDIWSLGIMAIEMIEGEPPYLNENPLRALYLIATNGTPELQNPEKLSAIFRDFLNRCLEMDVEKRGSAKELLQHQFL

Row | Structure (SMILES) | IC50
1 | CCN1CCC(CCNc2ncc3cc(-c4ccccc4S(C)(=O)=O)c(=O)n(CC)c3n2)CC1 [Compound I-5, 8-ethyl-2-[2-(1-ethyl-4-piperidyl)ethylamino]-6-(2-methylsulfonylphenyl)pyrido[2,3-d]pyrimidin-7-one] | > 4.5 µM
2 | CCNc1ncc2cc(-c3cccc(S(C)(=O)=O)c3)c(=O)n(CC)c2n1 [Compound I-3, 8-Ethyl-2-(ethylamino)-6-(3-methylsulfonylphenyl)pyrido[2,3-d]pyrimidin-7-one] | > 4.5 µM
3 | CCn1c(=O)c(-c2ccccc2S(C)(=O)=O)cc2cnc(NCCC3CCN(C)CC3)nc21 [Compound I-1, 8-Ethyl-2-((2-(1-methylpiperidin-4-yl)ethyl)amino)-6-(2-(methylsulfonyl)phenyl)pyrido[2,3-d]pyrimidin-7(8H)-one] | > 4.5 µM
4 | CCN1CCC(CCNc2ncc3cc(-c4ccc(S(C)(=O)=O)cc4)c(=O)n(CC)c3n2)CC1 [Compound I-6, 8-ethyl-2-[2-(1-ethyl-4-piperidyl)ethylamino]-6-(4-methylsulfonylphenyl)pyrido[2,3-d]pyrimidin-7-one] | > 4.5 µM
5 | CCN1CCC(CCNc2ncc3cc(-c4cccc(S(C)(=O)=O)c4)c(=O)n(CC)c3n2)CC1 [Compound I-2, 8-ethyl-2-[2-(1-ethyl-4-piperidyl)ethylamino]-6-(3-methylsulfonylphenyl)pyrido[2,3-d]pyrimidin-7-one] | 1.7 µM
6 | CCn1c(=O)c(-c2cccc(S(C)(=O)=O)c2)cc2cnc(NCCC3CCN(C)CC3)nc21 [Compound I-4, 8-ethyl-2-[2-(1-methyl-4-piperidyl)ethylamino]-6-(3-methylsulfonylphenyl)pyrido[2,3-d]pyrimidin-7-one] | 1.4 µM
7 | CCn1c(=O)c(-c2ccc(S(C)(=O)=O)cc2)cc2cnc(NCCC3CCN(C)CC3)nc21 [Compound I-7, 8-ethyl-2-[2-(1-methyl-4-piperidyl)ethylamino]-6-(4-methylsulfonylphenyl)pyrido[2,3-d]pyrimidin-7-one] | > 4.5 µM

The next lines start with the values.

Row | IC50 | Structure (SMILES)
8 | 0.874 µM | CCn1c(=O)c(-c2ccc([S+]([O-])C3CC3)cc2)cc2cnc(NCCC3CCN(C)CC3)nc21 (centres unmarked) [Compound I-12, 6-(4-cyclopropylsulfinylphenyl)-8-ethyl-2-[2-(1-methyl-4-piperidyl)ethylamino]pyrido[2,3-d]pyrimidin-7-one]
9 | > 4.5 µM | CCn1c(=O)c(-c2ccc(S(C)(=O)=O)cc2)cc2cnc(N[C@H]3[C@@H]4CNC[C@@H]43)nc21 [Compound I-10, 2-[[(1R,5S)-3-azabicyclo[3.1.0]hexan-6-yl]amino]-8-ethyl-6-(4-methylsulfonylphenyl)pyrido[2,3-d]pyrimidin-7-one]
10 | 3 µM | CCn1c(=O)c(-c2ccc(S(=O)(=O)C3CC3)cc2)cc2cnc(NCCC3CCN(C)CC3)nc21 [Compound I-9, 6-(4-cyclopropylsulfonylphenyl)-8-ethyl-2-[2-(1-methyl-4-piperidyl)ethylamino]pyrido[2,3-d]pyrimidin-7-one]
11 | 3.5 µM | CCn1c(=O)c(-c2ccc(S(C)(=O)=O)nc2)cc2cnc(NCCC3CCN(C)CC3)nc21 [Compound I-11, 8-ethyl-2-[2-(1-methyl-4-piperidyl)ethylamino]-6-(6-methylsulfonyl-3-pyridyl)pyrido[2,3-d]pyrimidin-7-one]
12 | 0.175 µM | CCNc1ncc2cc(-c3ccc(S(C)(=O)=O)cc3Cl)c(=O)n(C[C@H]3CC[C@H](N)CC3)c2n1 [Compound I-14, 8-(((1R,4R)-4-aminocyclohexyl)methyl)-6-(2-chloro-4-(methylsulfonyl)phenyl)-2-(ethylamino)pyrido[2,3-d]pyrimidin-7(8H)-one]
13 | > 4.5 µM | CCn1c(=O)c(-c2ccc([S+](C)[O-])cc2)cc2cnc(NCCC3CCN(C)CC3)nc21 (centres unmarked) [Compound I-8, 8-ethyl-2-[2-(1-methyl-4-piperidyl)ethylamino]-6-(4-methylsulfinylphenyl)pyrido[2,3-d]pyrimidin-7-one]
14 | 0.0683 µM | CCn1c(=O)c(-c2ccc(S(=O)(=O)C3CC3)cc2Cl)cc2cnc(NCCC3CCN(C)CC3)nc21 [Compound I-13, 6-(2-chloro-4-cyclopropylsulfonyl-phenyl)-8-ethyl-2-[2-(1-methyl-4-piperidyl)ethylamino]pyrido[2,3-d]pyrimidin-7-one]
